Results reported in ChEMBL document CHEMBL1201862, “PubChem BioAssay data set” (2004).
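Dose response: 5 concentrations. Exposure: 48 h. Format: 96-well plates. Endpoint: linear interpolation; highest concentration if not reached. The concentration for 50% growth inhibition is given as GI50.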 Activity calls are given as the source filed them. No stated cut-off is given here; in the data, active = GI50 up to about 1.1 µM and inactive = higher.

Tests used:
Experiment in all cases: NCI tumour cell line growth inhibition, 48 h
A498 = system: A498
A549 = system: A549
ACHN = system: ACHN
K562 = system: K562
LOX IMVI = system: LOX IMVI
MDA-N = system: MDA-N
OVCAR-4 = system: OVCAR-4
PC-3 = system: PC-3
RPMI-8226 = system: RPMI-8226
RXF 393 = system: RXF 393
SF-268 = system: SF-268
SF-539 = system: SF-539
SK-MEL-28 = system: SK-MEL-28
SK-MEL-5 = system: SK-MEL-5
SN12C = system: SN12C
SNB-19 = system: SNB-19
T47D = system: T47D
U-251 = system: U-251
TK-10 = system: TK-10

Measured: GI50

CC(=O)Nc1ccc(-c2nc3ccccc3s2)cc1I
inactive: A498 6.5 µM | A549 45 µM | ACHN 26.5 µM | K562 > 58.1 µM | LOX IMVI 24.8 µM | MDA-N > 100 µM | OVCAR-4 8.79 µM | PC-3 41.6 µM | RPMI-8226 > 100 µM | RXF 393 14.8 µM | SF-268 33.4 µM | SF-539 14.3 µM | SK-MEL-28 > 100 µM | SK-MEL-5 > 100 µM | SN12C 36.6 µM | SNB-19 24.3 µM | T47D 1.85 µM | U-251 25.1 µM

COc1cc(C(=O)O)c([N+](=O)[O-])c(OC)c1OC
inactive: A498 > 100 µM | A549 > 100 µM | ACHN > 100 µM | LOX IMVI > 100 µM | MDA-N > 100 µM | OVCAR-4 > 100 µM | PC-3 > 100 µM | RPMI-8226 > 100 µM | RXF 393 > 100 µM | SF-268 > 100 µM | SF-539 > 100 µM | SK-MEL-28 > 100 µM | SK-MEL-5 > 100 µM | SN12C > 100 µM | SNB-19 > 100 µM | T47D > 100 µM | TK-10 > 100 µM | U-251 > 100 µM

c1ccc2c(c1)-c1nc3ccccc3cc1C2N1CCOCC1 (configuration not stated)
inactive: A498 > 100 µM | A549 > 100 µM | ACHN > 100 µM | K562 > 100 µM | LOX IMVI > 100 µM | MDA-N > 100 µM | OVCAR-4 47.6 µM | PC-3 > 100 µM | RPMI-8226 72.1 µM | RXF 393 > 100 µM | SF-268 61.2 µM | SK-MEL-28 > 100 µM | SK-MEL-5 82.4 µM | SN12C > 100 µM | SNB-19 > 100 µM | T47D 45.8 µM | TK-10 > 100 µM | U-251 > 100 µM

CS(=O)(=O)CC(=O)c1ccccc1
inactive: A498 > 100 µM | A549 > 100 µM | ACHN > 100 µM | K562 > 100 µM | LOX IMVI > 100 µM | MDA-N > 100 µM | OVCAR-4 > 100 µM | PC-3 > 100 µM | RPMI-8226 > 100 µM | RXF 393 > 100 µM | SF-268 > 100 µM | SF-539 > 100 µM | SK-MEL-28 > 100 µM | SK-MEL-5 > 100 µM | SN12C > 100 µM | SNB-19 > 100 µM | T47D > 100 µM | TK-10 > 100 µM | U-251 > 100 µM

NC(=O)C(=CNC(N)=S)C(N)=O
inactive: A498 > 100 µM | A549 > 100 µM | ACHN > 100 µM | K562 > 100 µM | LOX IMVI > 100 µM | MDA-N > 100 µM | OVCAR-4 > 100 µM | PC-3 > 100 µM | RPMI-8226 > 100 µM | RXF 393 > 100 µM | SF-268 > 100 µM | SF-539 > 100 µM | SK-MEL-28 > 100 µM | SK-MEL-5 > 100 µM | SN12C > 100 µM | SNB-19 > 100 µM | T47D > 100 µM | U-251 > 100 µM

COc1ccc(/C=N/c2c(O)ccc3ccccc23)cc1OC
inactive: A498 > 100 µM | A549 54.6 µM | ACHN > 100 µM | K562 47.1 µM | LOX IMVI 46.8 µM | MDA-N 17.1 µM | OVCAR-4 > 100 µM | PC-3 > 100 µM | RPMI-8226 19.2 µM | RXF 393 69.3 µM | SF-268 19.4 µM | SF-539 > 100 µM | SK-MEL-28 > 100 µM | SK-MEL-5 56.2 µM | SN12C > 100 µM | SNB-19 > 100 µM | T47D 84.5 µM | TK-10 > 100 µM | U-251 > 100 µM

O=c1cc(-c2ccccc2)c2ccc(O)c(CN(CCCl)CCCl)c2o1
inactive: A498 19.1 µM | A549 16.1 µM | ACHN 20.4 µM | K562 29 µM | LOX IMVI 8.26 µM | MDA-N 17.6 µM | OVCAR-4 34.8 µM | PC-3 17.8 µM | RPMI-8226 12.6 µM | RXF 393 14 µM | SF-268 17.5 µM | SF-539 20.3 µM | SK-MEL-28 18.8 µM | SK-MEL-5 16.9 µM | SN12C 17.2 µM | SNB-19 18.5 µM | T47D 23.4 µM | U-251 22.1 µM

CCCCSc1n/c(=C\c2ccc(N(C)C)cc2)c2nnnn12
inactive: A498 > 100 µM | A549 > 100 µM | ACHN > 100 µM | K562 > 100 µM | LOX IMVI > 100 µM | MDA-N > 100 µM | OVCAR-4 > 100 µM | PC-3 > 100 µM | RPMI-8226 > 100 µM | RXF 393 > 100 µM | SF-268 > 100 µM | SF-539 > 100 µM | SK-MEL-28 > 100 µM | SN12C > 100 µM | SNB-19 > 100 µM | T47D > 100 µM | TK-10 > 100 µM | U-251 > 100 µM

CC1=NN(c2nc(N)nc(-c3cc4ccccc4oc3=N)n2)C(C)(C)C1
inactive: A498 27.7 µM | A549 19.5 µM | ACHN 19 µM | K562 18.9 µM | MDA-N 16.5 µM | OVCAR-4 17.4 µM | PC-3 17.1 µM | RPMI-8226 19.6 µM | RXF 393 20.7 µM | SF-268 19.1 µM | SF-539 19.5 µM | SK-MEL-28 16.5 µM | SK-MEL-5 16.8 µM | SN12C 19.5 µM | SNB-19 32.7 µM | T47D 16.1 µM | TK-10 23.4 µM | U-251 27 µM

COC(=O)c1c(O)ccc2c1c1c(n2Cc2ccccc2OC)C(=O)c2ccccc2C1
inactive: A498 > 100 µM | A549 49.1 µM | K562 70.5 µM | LOX IMVI 47.2 µM | MDA-N 77.1 µM | OVCAR-4 29.7 µM | PC-3 24 µM | RPMI-8226 22.4 µM | RXF 393 26.5 µM | SF-268 40.5 µM | SF-539 63.8 µM | SK-MEL-28 > 100 µM | SK-MEL-5 55.6 µM | SN12C 22.8 µM | SNB-19 > 100 µM | T47D 81.3 µM | TK-10 > 100 µM | U-251 63.4 µM

N#Cc1nc2cc(Cl)ccc2nc1N1CCN(c2ccc([N+](=O)[O-])cc2)CC1
inactive: A498 > 100 µM | A549 > 100 µM | ACHN > 100 µM | K562 > 100 µM | MDA-N > 100 µM | OVCAR-4 > 100 µM | PC-3 > 100 µM | RPMI-8226 > 100 µM | RXF 393 > 100 µM | SF-268 > 100 µM | SF-539 > 100 µM | SK-MEL-28 > 100 µM | SK-MEL-5 > 100 µM | SN12C > 100 µM | SNB-19 > 100 µM | T47D > 100 µM | TK-10 > 100 µM | U-251 > 100 µM

C=C(C)[C@@]1(O)CCCC[C@@H]1CC(Sc1ccccc1)Sc1ccccc1
inactive: A498 29.9 µM | A549 13.9 µM | ACHN 37.6 µM | K562 14.2 µM | LOX IMVI 14.6 µM | MDA-N 20 µM | OVCAR-4 13.6 µM | PC-3 16.3 µM | RPMI-8226 11.3 µM | RXF 393 13.4 µM | SF-268 15.7 µM | SK-MEL-28 18.1 µM | SK-MEL-5 15.7 µM | SN12C 16.4 µM | SNB-19 18.5 µM | T47D 12.4 µM | TK-10 15.5 µM | U-251 21.1 µM

Cc1ccc(S(=O)(=O)n2ccc(-c3ccc4ccn(S(=O)(=O)c5ccc(C)cc5)c4c3)c2)cc1
inactive: A498 > 100 µM | A549 > 100 µM | ACHN > 100 µM | K562 > 100 µM | LOX IMVI > 100 µM | MDA-N > 100 µM | OVCAR-4 > 100 µM | PC-3 > 100 µM | RPMI-8226 > 100 µM | RXF 393 12.9 µM | SF-268 > 100 µM | SF-539 > 100 µM | SK-MEL-5 > 100 µM | SN12C > 100 µM | SNB-19 41 µM | T47D > 100 µM | TK-10 > 100 µM | U-251 > 100 µM

COc1ccc(OC)c2c(=O)cc(-c3ccccc3)[nH]c12
inactive: A498 > 100 µM | A549 > 100 µM | ACHN > 100 µM | K562 > 100 µM | LOX IMVI > 100 µM | MDA-N > 100 µM | OVCAR-4 > 100 µM | PC-3 > 100 µM | RPMI-8226 > 100 µM | RXF 393 > 100 µM | SF-268 > 100 µM | SK-MEL-28 > 100 µM | SK-MEL-5 > 10 µM | SN12C > 100 µM | SNB-19 > 100 µM | T47D > 100 µM | TK-10 > 100 µM | U-251 > 100 µM

O=CN1CCN(C(=O)c2ccc(Cl)cc2Cl)C1=S
inactive: A498 42 µM | A549 67.3 µM | ACHN > 100 µM | K562 85.5 µM | LOX IMVI 32.3 µM | MDA-N 64.6 µM | OVCAR-4 > 100 µM | PC-3 > 100 µM | RPMI-8226 20.5 µM | RXF 393 29.3 µM | SF-268 26.1 µM | SF-539 > 100 µM | SK-MEL-28 > 100 µM | SN12C 43 µM | SNB-19 > 100 µM | T47D 32.4 µM | TK-10 78.7 µM | U-251 > 100 µM
